Experiment [1] deals with Serine/threonine-protein kinase mTOR (Homo sapiens, UniProt P42345). Briefly: Inhibition of human mTOR measured after 30 mins in presence of ATP by Lanthascreen TR-FRET assay. A general note: In TR-FRET formats the signal depends on donor and acceptor labels being close together.
Experiment [2] deals with Phosphatidylinositol 4,5-bisphosphate 3-kinase catalytic subunit alpha isoform (Homo sapiens, UniProt P42336). Briefly: Inhibition of PI3K alpha (unknown origin).

pIC50: −log10 of the molar value.

Phosphatidylinositol 4,5-bisphosphate 3-kinase catalytic subunit alpha isoform, sequence (P42336 whole entry, canonical isoform): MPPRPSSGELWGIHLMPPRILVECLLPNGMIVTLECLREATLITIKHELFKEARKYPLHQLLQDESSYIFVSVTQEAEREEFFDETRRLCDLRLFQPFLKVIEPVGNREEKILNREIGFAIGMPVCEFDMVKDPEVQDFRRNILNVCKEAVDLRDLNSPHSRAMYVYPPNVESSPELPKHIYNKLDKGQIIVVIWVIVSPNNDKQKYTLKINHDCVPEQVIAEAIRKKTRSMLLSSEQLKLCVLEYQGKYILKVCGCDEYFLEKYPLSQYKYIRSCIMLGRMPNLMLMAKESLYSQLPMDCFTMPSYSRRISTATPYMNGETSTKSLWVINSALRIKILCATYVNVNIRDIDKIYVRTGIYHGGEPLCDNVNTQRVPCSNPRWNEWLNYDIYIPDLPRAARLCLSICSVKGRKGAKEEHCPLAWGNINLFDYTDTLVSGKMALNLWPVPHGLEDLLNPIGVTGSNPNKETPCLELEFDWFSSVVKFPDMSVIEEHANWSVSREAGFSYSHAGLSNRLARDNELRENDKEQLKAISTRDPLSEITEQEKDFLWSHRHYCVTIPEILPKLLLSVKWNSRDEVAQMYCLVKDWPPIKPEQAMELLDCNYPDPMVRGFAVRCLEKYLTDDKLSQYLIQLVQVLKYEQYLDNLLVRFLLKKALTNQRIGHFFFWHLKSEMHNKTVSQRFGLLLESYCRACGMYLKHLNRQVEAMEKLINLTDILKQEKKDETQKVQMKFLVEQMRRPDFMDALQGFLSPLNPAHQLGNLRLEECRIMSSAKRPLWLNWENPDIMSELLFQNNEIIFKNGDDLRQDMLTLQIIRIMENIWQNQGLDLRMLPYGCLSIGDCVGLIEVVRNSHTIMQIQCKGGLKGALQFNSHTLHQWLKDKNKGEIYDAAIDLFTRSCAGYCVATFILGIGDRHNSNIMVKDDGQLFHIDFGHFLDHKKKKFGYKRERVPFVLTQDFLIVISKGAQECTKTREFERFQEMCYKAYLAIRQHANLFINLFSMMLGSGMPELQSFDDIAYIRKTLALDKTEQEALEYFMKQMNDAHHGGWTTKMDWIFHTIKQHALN

As usually defined, the pIC50 is the negative decadic logarithm of the IC50, by convention in mol/L. Turning to `CNC(=O)Nc1ccc(-c2ncc3c(n2)N2CCOCC2CC(=O)N3)cc1` (centres undefined), the pIC50 is 5.80 in experiment [1] and 5.60 in experiment [2].
`CNC(=O)Nc1ccc(-c2ncc3c(n2)N2CCOC[C@@]2(C)C(=O)N3CC2CC2)cc1`: the pIC50 in experiment [1] was 8.10; in experiment [2], 7.10.

Values taken from ChEMBL document CHEMBL4359925, “Rational discovery of a highly novel and selective mTOR inhibitor” (Bioorg Med Chem Lett, 2019).
